Values after ≈ are worked out from the molar mass of the structure shown.
Tests used:
Rattus norvegicus [1] = test: Inhibition of Mycobacterium tuberculosis H37Ra-induced arthritis in Lewis rat assessed as reduction of paw swelling at 10 mg/kg, po daily from day 9 to day 17 relative to control; assay type: functional
[2] = Tmax in Sprague-Dawley rat at 5 mg/kg, po; assay type: ADME, organism-based; set-up: dose 5 mg/kg, route oral; conditions: in vivo
[3] = target: Ribosomal protein S6 kinase alpha-5 (Homo sapiens, UniProt O75582); test: Inhibition of MSK1 by HTRF assay
Rattus norvegicus [4] = test: Antiinflammatory activity against collagen-induced arthritis in Lewis rat assessed as reduction of paw swelling at 0.3 mg/kg, po qd for 7 days relative to control; assay type: functional; set-up: scale not given: the % may be the effect or the level left
Rattus norvegicus [5] = test: Antiinflammatory activity against collagen-induced arthritis in po dosed Lewis rat assessed as reduction of paw swelling; assay type: functional
[6] = target: Vascular endothelial growth factor receptor 2 (Homo sapiens, UniProt P35968); test: Inhibition of KDR by HTRF assay
Mus musculus [7] = test: Inhibition of anti-CD3-induced IL2 production in BALB/c mouse serum at 10 mg/kg, po by ELISA relative to control; assay type: functional
[8] = Volume of distribution at steady state in Sprague-Dawley rat at 2 mg/kg, iv; assay type: ADME, organism-based; set-up: dose 2 mg/kg, route intravenous; conditions: in vivo, read-out: Vdss
Mus musculus [9] = test: Inhibition of anti-CD3-induced IL2 production in BALB/c mouse serum at 30 mg/kg, po by ELISA relative to control; assay type: functional
[10] = AUC in Mycobacterium tuberculosis H37Ra-induced arthritis Lewis rat; assay type: ADME, organism-based; conditions: plasma
T-cell [11] = test: Inhibition of anti-CD3/CD28-induced IL2 production in human T cells; assay type: functional, cell-based
[12] = Oral bioavailability in Sprague-Dawley rat at 5 mg/kg; assay type: ADME, organism-based; conditions: in vivo
Lymphocyte = test: Inhibition of T cell activation in human peripheral blood lymphocytes by mixed lymphocyte reaction; assay type: functional, cell-based
Rattus norvegicus [13] = test: Antiinflammatory activity against collagen-induced arthritis in Lewis rat assessed as reduction of paw swelling at 10 mg/kg, po qd for 7 days relative to control; assay type: functional; set-up: scale not given: the % may be the effect or the level left
[14] = AUC (0 to infinity) in Sprague-Dawley rat at 5 mg/kg, po; assay type: ADME, organism-based; set-up: time infinity, dose 5 mg/kg, route oral; conditions: plasma
[15] = target: Mitogen-activated protein kinase 14 (Homo sapiens, UniProt Q16539); test: Inhibition of p38-alpha by HTRF assay
T-cell [16] = test: Inhibition of anti-CD3/CD28-induced IL2 secretion in human T cells stimulated with phorbol myristic acid and calcium ionophore
Angiopoietin-1 receptor = Angiopoietin-1 receptor (Homo sapiens, UniProt Q02763); test: Inhibition of Tie-2 by HTRF assay
[17] = target: Mitogen-activated protein kinase 10 (Homo sapiens, UniProt P53779); test: Inhibition of JNK3 by HTRF assay
[18] = target: Serine/threonine-protein kinase B-raf (Homo sapiens, UniProt P15056); test: Inhibition of b-Raf by HTRF assay
Rattus norvegicus [19] = test: Inhibition of Mycobacterium tuberculosis H37Ra-induced arthritis in Lewis rat assessed as reduction of paw swelling at 20 mg/kg, po daily from day 9 to day 17 relative to control; assay type: functional
Rattus norvegicus [20] = test: Antiinflammatory activity against collagen-induced arthritis in Lewis rat assessed as reduction of paw swelling at 3 mg/kg, po qd for 7 days relative to control; assay type: functional; set-up: scale not given: the % may be the effect or the level left
[21] = Solubility in simulated intestinal fluid at pH 6.8; assay type: physicochemical
Mus musculus [22] = test: Inhibition of anti-CD3-induced IL2 production in BALB/c mouse serum at 3 mg/kg, po by ELISA relative to control; assay type: functional
[23] = target: Mast/stem cell growth factor receptor Kit (Homo sapiens, UniProt P10721); test: Inhibition of c-Kit by HTRF assay
[24] = Inhibition of anti-CD3/CD28-induced human T cell proliferation
Mus musculus [25] = species: Mus musculus; test: Inhibition of anti-CD3-induced IL2 production in BALB/c mouse serum by ELISA; assay type: functional
[26] = Cmax in collagen-induced arthritis Lewis rat; assay type: ADME, organism-based; conditions: in vivo
[27] = Cmax in Mycobacterium tuberculosis H37Ra-induced arthritis Lewis rat; assay type: ADME, organism-based; conditions: in vivo
Jurkat = test: Cytotoxicity against human Jurkat T cells assessed as cell viability after 72 hrs
[28] = target: Tyrosine-protein kinase ZAP-70 (Homo sapiens, UniProt P43403); test: Inhibition of ZAP-70 by HTRF assay
Rattus norvegicus [29] = test: Antiinflammatory activity against collagen-induced arthritis in Lewis rat assessed as reduction of paw swelling at 1 mg/kg, po qd for 7 days relative to control; assay type: functional; set-up: scale not given: the % may be the effect or the level left
[30] = target: Tyrosine-protein kinase Lyn (Homo sapiens, UniProt P07948); test: Inhibition of Lyn by HTRF assay
Rattus norvegicus [31] = test: Inhibition of Mycobacterium tuberculosis H37Ra-induced arthritis in po dosed Lewis rat assessed as reduction of paw swelling; assay type: functional
[32] = AUC in collagen-induced arthritis Lewis rat; assay type: ADME, organism-based; conditions: plasma
[33] = target: Mitogen-activated protein kinase 3 (Homo sapiens, UniProt P27361); test: Inhibition of Erk1 by HTRF assay
[34] = target: Tyrosine-protein kinase JAK3 (Homo sapiens, UniProt P52333); test: Inhibition of JAK3 by HTRF assay
[35] = Clearance in Sprague-Dawley rat at 2 mg/kg, iv; assay type: ADME, organism-based; set-up: dose 2 mg/kg, route intravenous; conditions: in vivo
[36] = target: Tyrosine-protein kinase SYK (Homo sapiens, UniProt P43405); test: Inhibition of Syk by HTRF assay
[37] = target: Tyrosine-protein kinase ITK/TSK (Homo sapiens, UniProt Q08881); test: Inhibition of Itk by HTRF assay
Rattus norvegicus [38] = test: Inhibition of Mycobacterium tuberculosis H37Ra-induced arthritis in Lewis rat assessed as reduction of paw swelling at 60 mg/kg, po daily from day 9 to day 17 relative to control; assay type: functional
[39] = Cmax in Sprague-Dawley rat at 5 mg/kg, po; assay type: ADME, organism-based; set-up: dose 5 mg/kg, route oral; conditions: in vivo
[40] = AUC (0 to infinity) in Sprague-Dawley rat at 2 mg/kg, iv; assay type: ADME, organism-based; set-up: time infinity, dose 2 mg/kg, route intravenous; conditions: plasma
[41] = Half life in Sprague-Dawley rat at 2 mg/kg, iv; assay type: ADME, organism-based; set-up: dose 2 mg/kg, route intravenous; conditions: in vivo
[42] = target: Tyrosine-protein kinase BTK (Homo sapiens, UniProt Q06187); test: Inhibition of Btk by HTRF assay
[43] = target: Mitogen-activated protein kinase 9 (Homo sapiens, UniProt P45984); test: Inhibition of JNK2 by HTRF assay

Sequence of Vascular endothelial growth factor receptor 2 (P35968 whole entry): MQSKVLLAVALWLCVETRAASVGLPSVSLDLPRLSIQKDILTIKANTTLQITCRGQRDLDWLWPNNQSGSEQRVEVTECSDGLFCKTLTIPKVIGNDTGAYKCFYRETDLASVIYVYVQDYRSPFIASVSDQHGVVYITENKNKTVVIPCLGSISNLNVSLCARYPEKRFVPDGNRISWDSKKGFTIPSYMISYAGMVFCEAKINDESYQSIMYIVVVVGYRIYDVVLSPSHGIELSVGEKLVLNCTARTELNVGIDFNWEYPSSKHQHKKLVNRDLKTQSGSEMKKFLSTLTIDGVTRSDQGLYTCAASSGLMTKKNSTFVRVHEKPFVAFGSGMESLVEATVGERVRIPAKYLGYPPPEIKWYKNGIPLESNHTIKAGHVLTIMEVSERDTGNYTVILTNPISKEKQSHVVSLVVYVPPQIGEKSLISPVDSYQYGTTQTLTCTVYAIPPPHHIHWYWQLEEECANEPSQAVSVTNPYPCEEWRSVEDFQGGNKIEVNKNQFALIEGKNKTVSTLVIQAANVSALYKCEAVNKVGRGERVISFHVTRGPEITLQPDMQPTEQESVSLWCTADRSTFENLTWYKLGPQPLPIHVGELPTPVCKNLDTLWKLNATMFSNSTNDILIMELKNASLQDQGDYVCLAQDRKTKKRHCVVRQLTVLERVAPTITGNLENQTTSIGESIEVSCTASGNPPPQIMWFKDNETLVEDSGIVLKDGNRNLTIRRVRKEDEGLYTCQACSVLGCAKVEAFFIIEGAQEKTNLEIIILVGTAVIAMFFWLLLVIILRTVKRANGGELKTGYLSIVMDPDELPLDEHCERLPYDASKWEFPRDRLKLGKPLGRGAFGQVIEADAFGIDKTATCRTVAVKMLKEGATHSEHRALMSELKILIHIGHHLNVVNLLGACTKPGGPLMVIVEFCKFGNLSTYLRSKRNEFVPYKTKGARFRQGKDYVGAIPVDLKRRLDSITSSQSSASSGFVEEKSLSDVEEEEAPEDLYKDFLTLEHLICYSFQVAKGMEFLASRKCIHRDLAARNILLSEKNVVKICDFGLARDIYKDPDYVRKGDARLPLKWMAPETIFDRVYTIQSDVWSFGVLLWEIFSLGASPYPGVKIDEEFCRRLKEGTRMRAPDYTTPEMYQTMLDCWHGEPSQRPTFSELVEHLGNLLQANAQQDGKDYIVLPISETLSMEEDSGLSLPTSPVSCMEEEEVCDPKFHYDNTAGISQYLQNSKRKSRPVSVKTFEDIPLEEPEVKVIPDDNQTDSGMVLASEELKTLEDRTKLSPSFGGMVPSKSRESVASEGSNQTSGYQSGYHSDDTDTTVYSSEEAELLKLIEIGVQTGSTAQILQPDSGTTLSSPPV
Sequence of Mitogen-activated protein kinase 3 (P27361 whole entry): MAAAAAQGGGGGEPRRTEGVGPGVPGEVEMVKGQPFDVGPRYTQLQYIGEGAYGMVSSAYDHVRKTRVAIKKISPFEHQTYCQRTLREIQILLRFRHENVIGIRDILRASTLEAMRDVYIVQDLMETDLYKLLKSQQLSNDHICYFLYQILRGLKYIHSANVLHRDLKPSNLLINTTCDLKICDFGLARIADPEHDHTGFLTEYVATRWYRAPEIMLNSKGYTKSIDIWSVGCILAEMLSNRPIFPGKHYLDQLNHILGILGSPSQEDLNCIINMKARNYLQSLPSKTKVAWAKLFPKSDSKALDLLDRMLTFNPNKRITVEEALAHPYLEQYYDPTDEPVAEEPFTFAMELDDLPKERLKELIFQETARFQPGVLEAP
Sequence of Serine/threonine-protein kinase B-raf (P15056 whole entry): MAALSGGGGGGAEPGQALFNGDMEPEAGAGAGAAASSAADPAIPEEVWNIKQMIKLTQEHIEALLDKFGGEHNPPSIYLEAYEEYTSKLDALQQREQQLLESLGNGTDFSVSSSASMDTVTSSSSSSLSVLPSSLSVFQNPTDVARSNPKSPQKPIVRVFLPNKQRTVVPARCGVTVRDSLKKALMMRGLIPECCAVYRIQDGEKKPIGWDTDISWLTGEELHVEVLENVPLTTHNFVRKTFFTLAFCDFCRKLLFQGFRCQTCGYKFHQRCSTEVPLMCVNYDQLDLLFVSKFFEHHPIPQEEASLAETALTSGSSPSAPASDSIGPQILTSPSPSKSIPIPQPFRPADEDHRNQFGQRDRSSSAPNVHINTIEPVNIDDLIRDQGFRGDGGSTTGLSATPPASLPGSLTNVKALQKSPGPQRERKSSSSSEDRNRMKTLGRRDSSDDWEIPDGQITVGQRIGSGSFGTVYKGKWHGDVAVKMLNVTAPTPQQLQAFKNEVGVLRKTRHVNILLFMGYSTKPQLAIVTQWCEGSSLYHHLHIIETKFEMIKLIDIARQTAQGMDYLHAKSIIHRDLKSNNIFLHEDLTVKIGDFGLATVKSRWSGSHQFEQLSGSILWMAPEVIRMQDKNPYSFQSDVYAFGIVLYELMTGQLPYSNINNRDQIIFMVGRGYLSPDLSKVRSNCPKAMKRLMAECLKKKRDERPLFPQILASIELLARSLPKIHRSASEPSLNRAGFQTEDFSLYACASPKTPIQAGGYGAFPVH
Sequence of Tyrosine-protein kinase Lyn (P07948 whole entry): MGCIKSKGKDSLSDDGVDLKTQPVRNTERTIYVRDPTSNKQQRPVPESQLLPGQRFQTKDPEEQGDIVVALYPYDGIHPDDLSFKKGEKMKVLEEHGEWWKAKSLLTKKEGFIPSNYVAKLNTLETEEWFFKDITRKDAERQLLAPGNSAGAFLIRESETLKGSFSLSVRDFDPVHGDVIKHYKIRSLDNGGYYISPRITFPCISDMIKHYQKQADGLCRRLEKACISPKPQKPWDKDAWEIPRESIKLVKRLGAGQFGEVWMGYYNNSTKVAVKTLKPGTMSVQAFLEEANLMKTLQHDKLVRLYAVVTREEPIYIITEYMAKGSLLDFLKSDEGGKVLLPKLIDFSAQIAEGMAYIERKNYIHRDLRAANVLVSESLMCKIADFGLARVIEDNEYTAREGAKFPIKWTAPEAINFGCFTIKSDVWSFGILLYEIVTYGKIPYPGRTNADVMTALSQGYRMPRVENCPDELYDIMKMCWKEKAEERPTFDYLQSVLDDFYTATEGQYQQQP
Sequence of Angiopoietin-1 receptor (Q02763 whole entry): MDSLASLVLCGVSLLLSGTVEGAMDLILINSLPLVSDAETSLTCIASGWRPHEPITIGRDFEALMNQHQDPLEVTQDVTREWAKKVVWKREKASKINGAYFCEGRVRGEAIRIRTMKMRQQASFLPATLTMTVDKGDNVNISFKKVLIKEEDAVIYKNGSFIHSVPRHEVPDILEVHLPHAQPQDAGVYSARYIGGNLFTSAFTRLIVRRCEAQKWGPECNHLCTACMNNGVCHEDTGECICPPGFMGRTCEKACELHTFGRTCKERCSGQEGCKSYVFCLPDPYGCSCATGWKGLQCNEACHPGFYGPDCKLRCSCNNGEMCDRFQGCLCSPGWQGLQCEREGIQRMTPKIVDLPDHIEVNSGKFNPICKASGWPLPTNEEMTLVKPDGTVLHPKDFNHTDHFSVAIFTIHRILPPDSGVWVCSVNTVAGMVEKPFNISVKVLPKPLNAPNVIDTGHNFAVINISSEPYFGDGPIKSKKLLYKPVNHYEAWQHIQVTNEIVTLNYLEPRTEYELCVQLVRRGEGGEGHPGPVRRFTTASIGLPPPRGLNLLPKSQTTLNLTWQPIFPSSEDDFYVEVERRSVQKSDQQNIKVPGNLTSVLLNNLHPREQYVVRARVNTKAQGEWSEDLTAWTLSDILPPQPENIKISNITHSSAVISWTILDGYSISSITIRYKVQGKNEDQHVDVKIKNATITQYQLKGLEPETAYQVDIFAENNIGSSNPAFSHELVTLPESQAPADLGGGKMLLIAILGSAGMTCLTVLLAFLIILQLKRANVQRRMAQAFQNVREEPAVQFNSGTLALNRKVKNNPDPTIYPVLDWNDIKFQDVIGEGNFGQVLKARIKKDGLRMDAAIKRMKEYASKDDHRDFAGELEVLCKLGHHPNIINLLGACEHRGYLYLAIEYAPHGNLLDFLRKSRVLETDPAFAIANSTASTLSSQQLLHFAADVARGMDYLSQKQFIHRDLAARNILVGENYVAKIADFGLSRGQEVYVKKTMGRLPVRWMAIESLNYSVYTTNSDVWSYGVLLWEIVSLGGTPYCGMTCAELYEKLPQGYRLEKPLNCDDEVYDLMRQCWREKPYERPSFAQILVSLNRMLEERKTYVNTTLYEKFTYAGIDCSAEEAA
Sequence of Tyrosine-protein kinase BTK (Q06187 whole entry): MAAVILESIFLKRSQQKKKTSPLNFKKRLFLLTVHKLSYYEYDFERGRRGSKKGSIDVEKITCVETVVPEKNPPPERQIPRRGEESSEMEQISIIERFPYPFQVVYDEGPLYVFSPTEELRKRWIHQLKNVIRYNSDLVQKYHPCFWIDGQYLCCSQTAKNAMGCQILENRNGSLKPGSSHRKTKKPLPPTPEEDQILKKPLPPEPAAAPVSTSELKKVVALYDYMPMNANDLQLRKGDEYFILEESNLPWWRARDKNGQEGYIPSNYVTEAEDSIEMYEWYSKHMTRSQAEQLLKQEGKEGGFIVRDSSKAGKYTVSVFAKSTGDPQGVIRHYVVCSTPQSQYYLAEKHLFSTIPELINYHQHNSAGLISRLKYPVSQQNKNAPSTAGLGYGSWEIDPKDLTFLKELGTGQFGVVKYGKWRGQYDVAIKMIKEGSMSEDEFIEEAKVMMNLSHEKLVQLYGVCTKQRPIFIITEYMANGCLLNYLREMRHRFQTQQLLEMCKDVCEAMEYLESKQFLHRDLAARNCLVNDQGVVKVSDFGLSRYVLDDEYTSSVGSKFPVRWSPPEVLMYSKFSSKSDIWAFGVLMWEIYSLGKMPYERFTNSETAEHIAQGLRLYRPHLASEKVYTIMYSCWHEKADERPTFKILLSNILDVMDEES

Structure (SMILES): Cc1cccc(C)c1-n1c(=O)c2cnc(Nc3ccc(N4CCN(C)CC4)cc3)nc2n2c3ccccc3nc12
- inhibition in vivo at 10 mg/kg (Rattus norvegicus [1]): 17%
- Tmax [2]: 3 h
- IC50 [3]: > 100000 nM
- Activity (Rattus norvegicus [4]): 15%
- ED50 (Rattus norvegicus [5]): 3.2 mg/kg
- IC50 [6]: 5100 nM
- inhibition in vivo at 10 mg/kg (Mus musculus [7]): 28%
- Vd [8]: 7.5 L/kg
- inhibition in vivo at 30 mg/kg (Mus musculus [9]): 56%
- AUC [10]: 2.7 µM·h
- IC50 (T-cell [11]): 460 nM
- bioavailability [12]: 17%
- IC50 (Lymphocyte): 47 nM
- Activity (Rattus norvegicus [13]): 95%
- AUC(0-inf) [14]: 862 ng·h/mL
- IC50 [15]: > 10000 nM
- IC50 (T-cell [16]): 5800 nM
- IC50 (Angiopoietin-1 receptor): 750 nM
- IC50 [17]: 7300 nM
- IC50 [18]: 540 nM
- inhibition in vivo at 20 mg/kg (Rattus norvegicus [19]): 64%
- Activity (Rattus norvegicus [20]): 49%
- solubility [21]: 153 µg/mL (≈ 288 µM)
- inhibition in vivo at 3 mg/kg (Mus musculus [22]): 15%
- IC50 [23]: 560 nM
- IC50 [24]: 530 nM
- ED50 (Mus musculus [25]): 26 mg/kg
- Cmax [26]: 500 nM
- Cmax [27]: 700 nM
- IC50 (Jurkat): 490 nM
- IC50 [28]: 1500 nM
- Activity (Rattus norvegicus [29]): 21%
- IC50 [30]: 21 nM
- ED50 (Rattus norvegicus [31]): 24 mg/kg
- AUC [32]: 3.3 µM·h
- IC50 [33]: > 100000 nM
- IC50 [34]: 150 nM
- clearance [35]: 30 mL/min/kg
- IC50 [36]: 200 nM
- IC50 [37]: > 20000 nM
- inhibition in vivo at 60 mg/kg (Rattus norvegicus [38]): 90%
- Cmax [39]: 82 ng/mL
- AUC(0-inf) [40]: 1150 ng·h/mL
- half-life [41]: 3.12 h
- IC50 [42]: 410 nM
- IC50 [43]: > 40000 nM
